Measured values published in PubChem BioAssay AID624167 (Sanford-Burnham Center for Chemical Genomics, 2012).
Active and inactive are the calls of the source.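 Rule for the calls: active = mean IC50 for reducing PEG3 promoter reporter signal at or below a set limit, with IC50 above the limit in both counter screens; inactive = the rest, including counter screen hits.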

How the values were obtained:
PEG-3 [1] = molecular target: PEG-3 (UniProt Q6IN02); experiment: Peg3 promoter luciferase inhibitors, potency, dose response, cell-based, HeLa, CREF/GAPDH counter-screen panel (AID 624167); settings: HeLa PEG-Prom luciferase reporter, overnight, CREF/GAPDH counter-screens, mean of runs
PEG-3 (UniProt Q6IN02), sequence (Q6IN02 whole entry, looked up): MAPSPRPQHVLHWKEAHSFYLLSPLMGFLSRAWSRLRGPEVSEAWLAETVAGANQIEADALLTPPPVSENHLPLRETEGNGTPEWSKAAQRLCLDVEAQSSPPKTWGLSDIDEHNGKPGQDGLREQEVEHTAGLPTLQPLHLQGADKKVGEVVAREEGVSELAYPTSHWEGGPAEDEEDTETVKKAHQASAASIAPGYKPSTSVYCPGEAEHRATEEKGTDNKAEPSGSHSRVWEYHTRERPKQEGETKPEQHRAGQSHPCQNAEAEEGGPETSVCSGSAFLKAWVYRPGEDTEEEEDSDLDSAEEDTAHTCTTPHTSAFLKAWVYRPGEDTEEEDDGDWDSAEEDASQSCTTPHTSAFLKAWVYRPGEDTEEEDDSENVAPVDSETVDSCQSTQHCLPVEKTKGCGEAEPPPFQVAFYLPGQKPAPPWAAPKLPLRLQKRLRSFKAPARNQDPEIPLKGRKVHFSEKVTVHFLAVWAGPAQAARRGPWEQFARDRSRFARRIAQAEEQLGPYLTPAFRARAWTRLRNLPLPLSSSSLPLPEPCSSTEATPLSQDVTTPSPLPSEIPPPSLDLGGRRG

PEG-3 [2] = experiment: as above; settings: HeLa PEG-Prom luciferase reporter, overnight, CREF/GAPDH counter-screens
[3] = run 1, dose range 1, individual replicate IC50 per panel
[4] = run 2, dose range 1, individual replicate IC50 per panel

Structure (SMILES) | IC50 (PEG-3 [1]) | IC50 (PEG-3 [2]; [3]) | IC50 (PEG-3 [2]; [4])
OCCNCc1cc(Br)ccc1OCc1ccc(Cl)cc1Cl | 17.4 µM | 16.9 µM | 17.9 µM
Cc1cc(Sc2ncnc(N)c2[N+](=O)[O-])ncn1 | 15.2 µM | 18.7 µM | 11.7 µM
CN(C)CCc1cc2c(c3c1ccc1ccccc13)OCO2 | 14 µM | 16.9 µM | 11.2 µM
CS(=O)(=O)c1ccc2nc(NC(=O)CCS(=O)(=O)c3ccccc3)sc2c1 | inactive | > 100 µM | 18.9 µM
CCOc1cccc2sc(N(CCCN(C)C)C(=O)c3ccc(S(=O)(=O)N(C)Cc4ccccc4)cc3)nc12 | 16.6 µM | 18.6 µM | 14.7 µM
CC(=O)c1ccc(Nc2cc(C)nc3ccc(C)cc23)cc1 | 13.3 µM | 21.8 µM | 4.69 µM
CCCOc1ccc(NC(=O)CC2C(=O)N(CC)C(=S)N2CCCN2CCN(Cc3ccccc3)CC2)cc1 (centres undefined) | 18.9 µM | 20.6 µM | 17.2 µM
COc1ccc(NC(=O)Nc2nc(C(N)C3CCCCC3)cs2)cc1 (centres undefined) | 20 µM | 17.9 µM | 22.1 µM
O=C1NC2C(=CC(O)C(O)C2O)c2cc3c(c(O)c21)OCO3 (centres undefined) | 0.293 µM | 0.293 µM | < 0.2 µM
Cc1ccc2sc(N(CCCN(C)C)C(=O)c3ccc(S(=O)(=O)N(C)C4CCCCC4)cc3)nc2c1C | 17.2 µM | 20.7 µM | 13.7 µM
Cc1cc(C)c2ccc(N)nc2c1O | 15.3 µM | 7.69 µM | 22.9 µM
CSc1ccc(CN(C)C(=O)C(Cc2ccccc2)NC(=O)c2ccccc2)cc1 (centres undefined) | inactive | 21.3 µM | 24.4 µM
O=C(O)c1ccc(N/N=C/c2ccc(OC(=O)c3ccccc3Cl)cc2)cc1 | inactive | 3.06 µM | 78.5 µM
COc1cccc2sc(N(CCCN(C)C)C(=O)C(c3ccccc3)c3ccccc3)nc12 | 18.2 µM | 18.2 µM | 18.2 µM
CCCCCc1ccc(OCCCC[n+]2cccc(C)c2)c(CCCCC)c1 | 13.6 µM | 16.4 µM | 10.7 µM
c1ccc(C(=NNc2nc3ccccc3s2)c2ccccn2)cc1 | 16 µM | 6.63 µM | 25.3 µM
CCCN(CC(=O)Nc1cc(Cl)cc(Cl)c1)CC(=O)Nc1ccc(F)c(F)c1F | inactive | 14.6 µM | 43.7 µM
CCOC(=O)CN(C(=O)CSc1nnc2c(n1)[nH]c1ccc(F)cc12)c1ccccc1 | inactive | 25 µM | 21.7 µM
Cc1cc(C)c2c(N)c3ccccc3nc2n1 | inactive | 18.5 µM | > 100 µM
O=c1cc2oc3cc(O)c(O)cc3c(-c3ccccc3[N+](=O)[O-])c-2cc1O | 19 µM | 19 µM | 19.1 µM
CC(C)CC(N)c1csc(NC(=O)Nc2ccccc2C(C)(C)C)n1 (centres undefined) | inactive | 22.7 µM | 18.2 µM
COc1ccc2sc3cccc(NCCN(C)C)c3c(=O)c2c1 | inactive | 21.6 µM | > 100 µM

Continued, in another order:

IC50 (PEG-3 [1]) | Structure (SMILES) | IC50 (PEG-3 [2]; [3]) | IC50 (PEG-3 [2]; [4])
inactive | Cc1cc(C=C2C(=O)c3ccccc3C2=O)c(C)n1-c1ccccc1 | 39.6 µM | > 100 µM
17 µM | CC(C)c1ccc(NC(=O)Nc2nc(C(C)N)cs2)cc1 (centres undefined) | 20.1 µM | 13.8 µM
inactive | COc1ccc(CN(C)C(=O)c2cc(-c3ccccc3)nc3ccc(C)cc23)c(OC)c1OC | 32.8 µM | 23.7 µM
inactive | OC[C@@H]1[C@@H](c2ccc(Cl)cc2)C(c2cccc(Cl)c2)=NN1c1ccccc1 | 30.5 µM | 16.4 µM
12.1 µM | Cc1cc(C(=O)CN2C(=O)c3ccccc3S2(=O)=O)c(C)n1C(C)C | 6.41 µM | 17.8 µM
> 100 µM (inactive) | Cc1nn(-c2ccccc2)c2c1C(c1ccc([N+](=O)[O-])cc1)N1C(=N2)C(=O)Nc2ccccc21 (centres undefined) | > 100 µM | > 100 µM
14.4 µM | CN(C)CCNc1ncnc2c1sc1nc(N3CCOCC3)c3c(c12)CC(C)(C)SC3 | 18.1 µM | 10.6 µM
> 100 µM (inactive) | COc1cc(/C=C/c2ccc3cccc(O)c3n2)ccc1O | > 100 µM | > 100 µM
inactive | Cc1cccc(CN2C(=O)[C@H]3Cc4c([nH]c5ccccc45)C(C)(C)N3C2=O)c1 | 29.9 µM | 28.6 µM
inactive | CCOC(=O)c1c(NC(=O)COc2ccccc2F)sc2c1CC(C)(C)NC2(C)C | 17.6 µM | 35 µM
inactive | COc1ccc(Nc2nc(-c3ccccc3)nc3ccccc23)cc1S(=O)(=O)N1CCOCC1 | 9.14 µM | 33.9 µM
